Assay results taken from US9688672B2, “3-pyrimidin-4-yl-oxazolidin-2-ones as inhibitors of mutant IDH” (NOVARTIS AG, priority 2013, dated 2017).

Experiments:
[1] = Metabolic stability in liver microsomes, Method II; type: in vitro ADME
Protocol: Determination of Metabolic Stability in Liver Microsomes—Method II
The in vitro metabolic stability assay was performed in a 96-deep-well plate with incubation at 37° C. 10 mM DMSO stock solution of the test compound was diluted 1:20 in acetonitrile, followed by an additional 1:10 dilution in 100 mM potassium phosphate buffer (KPi) to yield a final reaction concentration of 1 μM. Immediately prior to the start of the experiment, respective animal or human liver microsomes (male Sprague-dawley rat, male CD-1 mouse, or pooled human liver microsomes) were diluted in 100 mM KPi to 1.25 mg/mL liver microsomal protein. […]
At 0, 5, 15 and 30 minute time points in the reaction, reaction aliquots (75 μL) were removed and the reactions were terminated by the addition of 50:50 acetonitrile/methanol solution (75 μL) containing a mass spectrometry internal standard (0.5 μM glyburide). […] The supernatants solution were analyzed by UPLC/MS/MS for quantitation of parent remaining compound under multiple reactions monitoring mode (MRM) in positive mode. […]
The injection volume was 5 μL. Compounds were detected using Analyst 1.5.1 software which collects intensity data for all fragments related to the molecular weight of the test compound. […]
The intrinsic clearance value, CLint (expressed as μL/min/mg microsomal protein) calculation is shown below: […]

[2] = Metabolic stability in liver microsomes, Method II; type: in vitro ADME; remark: listed apart in the source
Protocol: The in vitro metabolic stability assay was performed in a 96-deep-well plate with incubation at 37° C. 10 mM DMSO stock solution of the test compound was diluted 1:20 in acetonitrile, followed by an additional 1:10 dilution in 100 mM potassium phosphate buffer (KPi) to yield a final reaction concentration of 1 μM. […] 290 μL of cofactor solution (1.7 mM NADPH, 1.7 mM UDPGA, 3.4 mM MgCl in 100 mM KPi) was added to 200 μL of microsomal protein for a final volume of 490 μL. The reaction was initiated by adding 10 μL of the 50 μM test solution to 490 μL of microsomal protein for a final volume 500 μL enzyme-compound mixture.
At 0, 5, 15 and 30 minute time points in the reaction, reaction aliquots (75 μL) were removed and the reactions were terminated by the addition of 50:50 acetonitrile/methanol solution (75 μL) containing a mass spectrometry internal standard (0.5 μM glyburide). The samples were centrifuged at 4000 RPM for 10 minutes. […] The supernatants solution were analyzed by UPLC/MS/MS for quantitation of parent remaining compound under multiple reactions monitoring mode (MRM) in positive mode. […]

Human microsomal stability CLint [1]: 30.44 µL/min/mg
Mouse microsomal stability CLint [2]: 167.04 µL/min/mg
SMILES: C[C@H](Nc1ncc(F)c(N2C(=O)OC[C@@H]2[C@H](C)F)n1)c1cn(-c2ccc(Cl)cc2F)cn1 [Example 477, (R)-3-(2-(((S)-1-(1-(4-chloro-2-fluorophenyl)-1H-imidazol-4-yl)ethyl)amino)-5-fluoropyrimidin-4-yl)-4-((S)-1-fluoroethyl)oxazolidin-2-one]
